Measurements reported in patent publication US11220504B2, “Pyrrolo[3,2-d] pyrimidine derivatives for the treatment of viral infections and other diseases” (JANSSEN SCIENCES IRELAND UNLIMITED COMPANY, priority 2012, dated 2022).

Tests used:
human TLR8 = molecular target: T1, human TLR8 (Homo sapiens, UniProt Q9NR97); assay: TLR8 cellular reporter assay (HEK293, NFκB-luc); assay type: cell-based; details: HEK293 cells transfected with CMV-TLR8 and NFκB-luc, 6 hours incubation; lowest effective concentration
T1 construct: expressed in transfected cells; host or cells: HEK293 cells, transient transfection with TLR8 plasmid and NFκB-luc plasmid
T1 sequence (Q9NR97 27-1041): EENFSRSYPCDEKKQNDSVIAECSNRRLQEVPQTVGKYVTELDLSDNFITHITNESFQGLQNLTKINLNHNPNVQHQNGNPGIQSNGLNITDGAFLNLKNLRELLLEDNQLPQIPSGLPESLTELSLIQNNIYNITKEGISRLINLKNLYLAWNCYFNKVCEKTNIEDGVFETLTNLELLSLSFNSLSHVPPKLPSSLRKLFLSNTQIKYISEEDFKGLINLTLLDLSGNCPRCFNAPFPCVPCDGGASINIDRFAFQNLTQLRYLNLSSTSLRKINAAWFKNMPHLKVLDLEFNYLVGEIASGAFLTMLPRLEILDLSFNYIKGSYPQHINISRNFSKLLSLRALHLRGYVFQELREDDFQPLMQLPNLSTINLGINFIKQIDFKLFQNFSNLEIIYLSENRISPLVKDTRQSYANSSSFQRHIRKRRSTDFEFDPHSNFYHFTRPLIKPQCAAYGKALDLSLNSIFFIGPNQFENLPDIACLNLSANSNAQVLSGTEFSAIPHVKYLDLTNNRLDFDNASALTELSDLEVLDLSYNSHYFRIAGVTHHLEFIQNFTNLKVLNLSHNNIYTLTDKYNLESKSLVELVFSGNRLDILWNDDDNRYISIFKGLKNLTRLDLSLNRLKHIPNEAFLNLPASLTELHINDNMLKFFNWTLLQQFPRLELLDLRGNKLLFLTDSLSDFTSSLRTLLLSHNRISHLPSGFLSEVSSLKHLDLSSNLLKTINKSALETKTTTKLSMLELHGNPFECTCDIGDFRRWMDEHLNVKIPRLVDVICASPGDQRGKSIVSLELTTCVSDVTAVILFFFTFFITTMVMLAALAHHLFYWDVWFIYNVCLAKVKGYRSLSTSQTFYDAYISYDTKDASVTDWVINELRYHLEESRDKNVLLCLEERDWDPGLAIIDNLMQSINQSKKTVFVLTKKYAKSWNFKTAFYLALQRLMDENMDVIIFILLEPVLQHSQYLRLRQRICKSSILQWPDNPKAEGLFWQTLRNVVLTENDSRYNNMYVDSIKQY
Procedure, shortened: (§1)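 HEK293 cells transiently transfected with receptor expression vector plus NFκB-luciferase reporter, exposed to compound (added in 4% DMSO) for 6 hours at 37° C, 5% CO2. Luciferase activity measured by luminescence; dose-response curves from quadruplicate measurements.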

human TLR7 = molecular target: T2, human TLR7 (Homo sapiens, UniProt Q9NYK1); assay: TLR7 cellular reporter assay (HEK293, NFκB-luc); assay type: cell-based; details: HEK293 cells transfected with CMV-TLR7 and NFκB-luc, 6 hours incubation; lowest effective concentration
T2 construct: expressed in transfected cells; host or cells: HEK293 cells, transient transfection with CMV-TLR7 plasmid and NFκB-luc plasmid
T2 sequence (Q9NYK1 27-1049): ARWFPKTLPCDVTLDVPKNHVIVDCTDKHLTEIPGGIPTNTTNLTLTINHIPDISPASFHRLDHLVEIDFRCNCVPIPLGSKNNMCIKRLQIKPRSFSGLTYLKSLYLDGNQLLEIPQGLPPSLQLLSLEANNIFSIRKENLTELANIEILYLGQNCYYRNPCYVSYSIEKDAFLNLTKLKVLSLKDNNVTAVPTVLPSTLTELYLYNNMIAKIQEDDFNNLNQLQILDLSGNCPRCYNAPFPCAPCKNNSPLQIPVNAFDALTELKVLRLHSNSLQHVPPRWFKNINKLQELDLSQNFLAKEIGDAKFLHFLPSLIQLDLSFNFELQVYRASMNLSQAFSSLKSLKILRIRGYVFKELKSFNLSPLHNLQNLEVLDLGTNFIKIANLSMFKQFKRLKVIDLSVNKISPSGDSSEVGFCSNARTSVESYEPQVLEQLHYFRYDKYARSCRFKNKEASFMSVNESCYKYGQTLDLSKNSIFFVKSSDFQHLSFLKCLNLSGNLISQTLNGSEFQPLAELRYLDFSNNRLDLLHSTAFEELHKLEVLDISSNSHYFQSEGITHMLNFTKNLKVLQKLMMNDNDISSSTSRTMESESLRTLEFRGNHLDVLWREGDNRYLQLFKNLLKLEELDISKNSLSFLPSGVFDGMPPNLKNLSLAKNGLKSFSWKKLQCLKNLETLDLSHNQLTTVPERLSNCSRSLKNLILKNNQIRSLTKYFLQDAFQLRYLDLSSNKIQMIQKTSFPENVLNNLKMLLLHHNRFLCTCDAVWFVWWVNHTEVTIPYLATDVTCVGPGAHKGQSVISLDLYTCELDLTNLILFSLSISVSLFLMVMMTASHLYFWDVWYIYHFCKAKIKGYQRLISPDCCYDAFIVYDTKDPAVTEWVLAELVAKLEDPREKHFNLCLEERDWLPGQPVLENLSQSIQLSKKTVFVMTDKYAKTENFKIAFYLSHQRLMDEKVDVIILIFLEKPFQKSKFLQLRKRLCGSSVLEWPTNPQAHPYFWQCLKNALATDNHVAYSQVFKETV
Procedure, shortened: as §1

[1] = tested on: interferon-stimulated responsive elements (ISRE); assay: Activation of ISRE promoter elements by conditioned media from PBMC (HEK-ISREluc); assay type: cell-based, human; details: Homo sapiens; conditioned media from PBMC transferred to HEK-ISREluc cells, 24 hours; lowest effective concentration; read-out: PBMC LEC
Procedure, shortened: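 Human PBMCs (≥2 donors, RPMI + 10% human AB serum, 2×10^5 cells/well) incubated overnight with compound; supernatant transferred to HEK293 cells stably carrying pISRE-Luc for 24 h, then luciferase read. LEC = compound concentration on PBMCs giving luciferase signal at least two-fold above assay SD; recombinant IFN-α-2a standard.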

| SMILES | TLR8 LEC (human TLR8) | TLR7 LEC (human TLR7) | minimal effective concentration [1] |
| --- | --- | --- | --- |
| COCCNc1nc(N)nc2ccn(Cc3cccc(CN4CCCC4)c3)c12 [Compound 111] | >25 µM | 0.637 µM | 0.293 µM |
| Cc1cc(CNc2nc(N)nc3ccn(Cc4ccncc4)c23)no1 [Compound 112] | >25 µM | 0.741 µM | 0.209 µM |
| COCCNc1nc(N)nc2ccn(Cc3cccc(C)n3)c12 [Compound 113] | >25 µM | 1.320 µM | 0.807 µM |
| COCCNc1nc(N)nc2ccn(Cc3ncccc3OC)c12 [Compound 115] | 7.93 µM | 0.241 µM | 0.079 µM |
| CCCCNc1nc(N)nc2ccn(Cc3cccc(CN4CCCC4)c3)c12 [Compound 116] | >25 µM | 0.049 µM | 0.022 µM |
| COCCNc1nc(N)nc2ccn(Cc3ccc(C(F)(F)F)cn3)c12 [Compound 117] | >22.7 µM | 2.950 µM | 1.43 µM |
| COCCNc1nc(N)nc2ccn(Cc3ccncc3)c12 [Compound 118] | >25 µM | 1.650 µM | 3.01 µM |
| COCCNc1nc(N)nc2ccn(Cc3cc(OC)ccn3)c12 [Compound 120] | >25 µM | 3.220 µM | 2.16 µM |
| COCCNc1nc(N)nc2ccn(Cc3ccncc3OC)c12 [Compound 121] | >25 µM | 0.172 µM | 0.046 µM |
| COc1cnccc1Cn1ccc2nc(N)nc(NCc3cc(C)on3)c21 [Compound 123] | >25 µM | 0.026 µM | 0.002 µM |
| COCCn1ccc2nc(N)nc(NCc3cc(C)on3)c21 [Compound 128] | >25 µM | 0.342 µM | 0.062 µM |
| CCOc1ccccc1Cn1ccc2nc(N)nc(NCCOC)c21 [Compound 129] | >25 µM | 0.670 µM | 0.122 µM |
| CCCCNc1nc(N)nc2ccn(Cc3ccccc3OC(F)(F)F)c12 [Compound 130] | >25 µM | 1.940 µM | 0.804 µM |
| COCCNc1nc(N)nc2ccn(Cc3cscn3)c12 [Compound 132] | >25 µM | 5.99 µM | 0.879 µM |
| CCCCNc1nc(N)nc2ccn(Cc3ccccc3OCC)c12 [Compound 133] | >25 µM | 0.07 µM | 0.023 µM |
| CCCCNc1nc(N)nc2ccn(Cc3cc(OC4CCOC4)c(OC)cn3)c12 (stereo not drawn) [Compound 134] | >25 µM | 1.20 µM | 0.104 µM |
| COCCNc1nc(N)nc2ccn(Cc3cc(OC4CCOC4)c(OC)cn3)c12 (stereo not drawn) [Compound 135] | >25 µM | 12.5 µM | 4.05 µM |

| SMILES | TLR8 LEC (human TLR8) | TLR7 LEC (human TLR7) | minimal effective concentration [1] |
| --- | --- | --- | --- |
| CC(C)OCCNc1nc(N)nc2ccn(Cc3ccccn3)c12 [Compound 137] | >25 µM | 13.8 µM | 2.03 µM |
| Nc1nc(NCC2CCCO2)c2c(ccn2Cc2ccccn2)n1 (stereo not drawn) [Compound 139] | >25 µM | 1.41 µM | 0.588 µM |
| Cc1cc(CNc2nc(N)nc3ccn(Cc4cccc(C(F)(F)F)n4)c23)no1 [Compound 143] | >25 µM | 0.10 µM | 0.016 µM |
| COCCNc1nc(N)nc2ccn(Cc3ncc(C)c(OC)c3C)c12 [Compound 147] | >25 µM | 4.49 µM | 2.02 µM |
| CCCCNc1nc(N)nc2ccn(C[C@H]3CCCO3)c12 [Compound 148] | 3.93 µM | 0.16 µM | 0.056 µM |
| CCCCNc1nc(N)nc2ccn(Cc3cccc4c3OCC4)c12 [Compound 149] | >25 µM | 0.02 µM | 0.006 µM |
| COCCNc1nc(N)nc2ccn(Cc3cccc4c3OCC4)c12 [Compound 150] | >25 µM | 0.25 µM | 0.054 µM |
| Cc1cc(CNc2nc(N)nc3ccn(Cc4cccc(CN5CCCC5)c4)c23)no1 [Compound 153] | >25 µM | 0.05 µM | 0.002 µM |
| Cc1cc(CNc2nc(N)nc3ccn(Cc4cscn4)c23)no1 [Compound 154] | >25 µM | 0.08 µM | 0.017 µM |
| Cc1cc(CNc2nc(N)nc3ccn(Cc4cn5ccccc5n4)c23)no1 [Compound 157] | >25 µM | 0.03 µM | 0.003 µM |
| Cc1cc(CNc2nc(N)nc3ccn(Cc4cccc(Cl)n4)c23)no1 [Compound 159] | >25 µM | 0.05 µM | 0.019 µM |
| COCCNc1nc(N)nc2ccn(C[C@H]3CCCO3)c12 [Compound 160] | >25 µM | 8.07 µM | 1.81 µM |
| CCCCNc1nc(N)nc2ccn(Cc3ccccc3OC(F)F)c12 [Compound 161] | >25 µM | 0.02 µM | 0.009 µM |
| COCCNc1nc(N)nc2ccn(Cc3ccccc3OC(F)F)c12 [Compound 162] | >25 µM | 0.32 µM | 0.128 µM |
| CCCCNc1nc(N)nc2ccn(Cc3cccc4c3OCCO4)c12 [Compound 163] | 0.75 µM | <0.01 µM | 0.001 µM |
| COCCNc1nc(N)nc2ccn(Cc3cccc4c3OCCO4)c12 [Compound 164] | 15.93 µM | 0.04 µM | 0.025 µM |
| COc1ccnc(Cn2ccc3nc(N)nc(NCc4cc(C)on4)c32)c1 [Compound 167] | >25 µM | 0.09 µM | 0.008 µM |
